Experimental data from patent US8987195B2 (priority 2012, dated 2015).
Read-outs that look alike come from different tables or passages of the source.

What was measured:
HCV genotype 1b replicon = experiment: HCV replicon assay, genotype 1b replicon EC50; type: cell-based, Hepatitis C virus; settings: read-out: EC50 [gt-1b]
Outline: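 Compound dilution series incubated 24-48 h, G418 absent, with HCV genotype 1b replicon cell lines kept under G418 selection beforehand. Luciferase signal or replicon RNA, by ^32P hybridization/protection or TaqMan normalized to cyclophilin A, was measured after washing and lysis. Four-parameter fitting against DMSO control gave EC50.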

[1] = target: HCV NS3/4A protease genotype 1b (Hepatitis C virus genotype 1b, UniProt P26663); experiment: HCV NS3/4A protease time-resolved fluorescence (TRF) assay, Ki against genotype 1b; type: biochemical
Outline: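 First, protease (genotype 1b 0.2 nM, A156T 0.4 nM, genotype 3a 0.025 nM) is preincubated 30 min with inhibitor. Next, 25 nM TRF substrate starts the reaction, run 2.5 h at room temperature. Finally, europium fluorescence is read and Ki calculated from IC50.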

[2] = Hepatitis C virus, genotype 1b replicon, K+ salt
[3] = IC50 [gt-1b] (nM), NS3/4A genotype 1b, enzyme 0.2 nM, K+ salt
[4] = Hepatitis C virus, HCV replicon, genotype 1b
[5] = IC50 [gt-1b], NS3/4A protease TRF assay, genotype 1b enzyme 0.2 nM

SMILES: COc1ccc2nc(C)c3c(c2c1)[C@H](F)C[C@]1(C[C@H]2C(=O)N[C@]4(C(=O)NS(=O)(=O)C5(C)CC5)C[C@H]4/C=C\CCCCC[C@H](NC(=O)OC(C)(C)C(F)(F)F)C(=O)N2C1)O3 [Example 355, 1,1,1-trifluoro-2-methylpropan-2-yl [(1′R,2S,6S,12Z,13aS,14aR,16aS)-1′-fluoro-9′-methoxy-5′-methyl-14a-{[(1-methylcyclopropyl)sulfonyl]carbamoyl}-5,16-dioxo-1,1′,2′,5,6,7,8,9,10,11,13a,14,14a,15,16,16a-hexadecahydrospiro[cyclopropa[e]pyrrolo[1,2-a][1,4]diazacyclopentadecine-2,3′-pyrano[2,3-c]quinolin]-6-yl]carbamate]
- EC50 (HCV genotype 1b replicon; [2]): 3.77 nM
- IC50 [1, 3]: 0.02 nM

SMILES: COc1ccc2nc(C)c3c(c2c1)[C@H](F)C[C@]1(C[C@H]2C(=O)N[C@]4(C(=O)NS(=O)(=O)C5(C)CC5)C[C@H]4/C=C\CCCCC[C@H](NC(=O)O[C@H](C)C(C)C)C(=O)N2C1)O3 [Example 356, (2R)-3-methylbutan-2-yl [(1′R,2S,6S,12Z,13aS,14aR,16aS)-1′-fluoro-9′-methoxy-5′-methyl-14a-{[(1-methylcyclopropyl)sulfonyl]carbamoyl}-5,16-dioxo-1,1′,2′,5,6,7,8,9,10,11,13a,14,14a,15,16,16a-hexadecahydrospiro[cyclopropa[e]pyrrolo[1,2-a][1,4]diazacyclopentadecine-2,3′-pyrano[2,3-c]quinolin]-6-yl]carbamate]
- EC50 (HCV genotype 1b replicon; [2]): 3.73 nM
- IC50 [1, 3]: 0.012 nM

SMILES: COc1ccc2nc(C)c3c(c2c1)[C@H](F)C[C@]1(C[C@H]2C(=O)N[C@]4(C(=O)NS(=O)(=O)C5(C)CC5)C[C@H]4/C=C\CCCCC[C@H](NC(=O)O[C@@H](C)C(C)C)C(=O)N2C1)O3 [Example 357, (2S)-3-methylbutan-2-yl [(1′R,2S,6S,12Z,13aS,14aR,16aS)-1′-fluoro-9′-methoxy-5′-methyl-14a-{[(1-methylcyclopropyl)sulfonyl]carbamoyl}-5,16-dioxo-1,1′,2′,5,6,7,8,9,10,11,13a,14,14a,15,16,16a-hexadecahydrospiro[cyclopropa[e]pyrrolo[1,2-a][1,4]diazacyclopentadecine-2,3′-pyrano[2,3-c]quinolin]-6-yl]carbamate]
- EC50 (HCV genotype 1b replicon; [2]): 2.91 nM
- IC50 [1, 3]: 0.01 nM

SMILES: COc1ccc2nc(C)c3c(c2c1)[C@H](F)C[C@]1(C[C@H]2C(=O)N[C@]4(C(=O)NS(=O)(=O)C5(C)CC5)C[C@H]4/C=C\CCCCC[C@H](NC(=O)O[C@@H](C)C(C)C)C(=O)N2C1)O3 [Example 358, (2S)-3-methylbutan-2-yl [(1′R,2S,6S,12Z,13aS,14aR,16aS)-1′-fluoro-9′-methoxy-5′-methyl-14a-{[(1-methylcyclopropyl)sulfonyl]carbamoyl}-5,16-dioxo-1,1′,2′,5,6,7,8,9,10,11,13a,14,14a,15,16,16a-hexadecahydrospiro[cyclopropa[e]pyrrolo[1,2-a][1,4]diazacyclopentadecine-2,3′-pyrano[2,3-c]quinolin]-6-yl]carbamate]
- EC50 (HCV genotype 1b replicon; Hepatitis C virus, HCV replicon, genotype 1b, K+ salt): 42.8 nM
- IC50 ([1]; IC50 [gt-1b], NS3/4A protease TRF assay, genotype 1b enzyme 0.2 nM, K+ salt): 0.172 nM

SMILES: Cc1nc2ccccc2c2c1O[C@]1(CC2)C[C@H]2C(=O)N[C@]3(C(=O)NS(=O)(=O)C4(C)CC4)C[C@H]3/C=C\CCCCC[C@H](Nc3ncccn3)C(=O)N2C1 [Example 359, (2R,6S,12Z,13aS,14aR,16aS)-5′-methyl-N-[(1-methylcyclopropyl)sulfonyl]-5,16-dioxo-6-(pyrimidin-2-ylamino)-1,1′,2′,6,7,8,9,10,11,13a,14,15,16,16a-tetradecahydrospiro[cyclopropa[e]pyrrolo[1,2-a][1,4]diazacyclopentadecine-2,3′-pyrano[2,3-c]quinoline]-14a(5H)-carboxamide]
- EC50 (HCV genotype 1b replicon; [4]): 205 nM
- IC50 [1, 5]: 0.4 nM

SMILES: Cc1nc2ccccc2c2c1O[C@]1(CC2)C[C@H]2C(=O)N[C@]3(C(=O)NS(=O)(=O)C4(C)CC4)C[C@H]3/C=C\CCCCC[C@H](Nc3nccs3)C(=O)N2C1 [Example 360, (2R,6S,12Z,13aS,14aR,16aS)-5′-methyl-N-[(1-methylcyclopropyl)sulfonyl]-5,16-dioxo-6-(1,3-thiazol-2-ylamino)-1,1′,2′,6,7,8,9,10,11,13a,14,15,16,16a-tetradecahydrospiro[cyclopropa[e]pyrrolo[1,2-a][1,4]diazacyclopentadecine-2,3′-pyrano[2,3-c]quinoline]-14a(5H)-carboxamide]
- EC50 (HCV genotype 1b replicon; [4]): 140 nM
- IC50 [1, 5]: 0.143 nM

SMILES: COc1ccc2nc(C)c3c(c2n1)CC[C@]1(C[C@H]2C(=O)N[C@]4(C(=O)NS(=O)(=O)C5(C)CC5)C[C@H]4/C=C\CCCCC[C@H](NC(=O)OCC(C)C)C(=O)N2C1)O3 [Example 362, 2-methylpropyl [(2R,6S,12Z,13aS,14aR,16aS)-2′-methoxy-6′-methyl-14a-{[(1-methylcyclopropyl)sulfonyl]carbamoyl}-5,16-dioxo-1,5,6,7,8,9,9′,10,10′,11,13a,14,14a,15,16,16a-hexadecahydrospiro[cyclopropa[e]pyrrolo[1,2-a][1,4]diazacyclopentadecine-2,8′-pyrano[2,3-c][1,5]naphthyridin]-6-yl]carbamate]
- EC50 (HCV genotype 1b replicon; [4]): 4.07 nM
- IC50 [1, 5]: 0.008 nM

SMILES: COc1ccc2nc(C)c3c(c2n1)CC[C@]1(C[C@H]2C(=O)N[C@]4(C(=O)NS(=O)(=O)C5(C)CC5)C[C@H]4/C=C\CCCCC[C@H](NC(=O)OC4CCCC4)C(=O)N2C1)O3 [Example 363, cyclopentyl [(2R,6S,12Z,13aS,14aR,16aS)-2′-methoxy-6′-methyl-14a-{[(1-methylcyclopropyl)sulfonyl]carbamoyl}-5,16-dioxo-1,5,6,7,8,9,9′,10,10′,11,13a,14,14a,15,16,16a-hexadecahydrospiro[cyclopropa[e]pyrrolo[1,2-a][1,4]diazacyclopentadecine-2,8′-pyrano[2,3-c][1,5]naphthyridin]-6-yl]carbamate]
- EC50 (HCV genotype 1b replicon; [4]): 8.16 nM
- IC50 [1, 5]: 0.011 nM

SMILES: COc1ccc2nc(C)c3c(c2n1)CC[C@]1(C[C@H]2C(=O)N[C@]4(C(=O)NS(=O)(=O)C5(C)CC5)C[C@H]4/C=C\CCCCC[C@H](NC(=O)OC4(C)CC4)C(=O)N2C1)O3 [Example 364, 1-methylcyclopropyl [(2R,6S,12Z,13aS,14aR,16aS)-2′-methoxy-6′-methyl-14a-{[(1-methylcyclopropyl)sulfonyl]carbamoyl}-5,16-dioxo-1,5,6,7,8,9,9′,10,10′,11,13a,14,14a,15,16,16a-hexadecahydrospiro[cyclopropa[e]pyrrolo[1,2-a][1,4]diazacyclopentadecine-2,8′-pyrano[2,3-c][1,5]naphthyridin]-6-yl]carbamate]
- EC50 (HCV genotype 1b replicon; [4]): 5.46 nM
- IC50 [1, 5]: 0.012 nM

SMILES: COc1ccc2nc(C)c3c(c2n1)CC[C@]1(C[C@H]2C(=O)N[C@]4(C(=O)NS(=O)(=O)C5(C)CC5)C[C@H]4/C=C\CCCCC[C@H](NC(=O)OC4(C)CCC4)C(=O)N2C1)O3 [Example 365, 1-methylcyclobutyl [(2R,6S,12Z,13aS,14aR,16aS)-2′-methoxy-6′-methyl-14a-{[(1-methylcyclopropyl)sulfonyl]carbamoyl}-5,16-dioxo-1,5,6,7,8,9,9′,10,10′,11,13a,14,14a,15,16,16a-hexadecahydrospiro[cyclopropa[e]pyrrolo[1,2-a][1,4]diazacyclopentadecine-2,8′-pyrano[2,3-c][1,5]naphthyridin]-6-yl]carbamate]
- EC50 (HCV genotype 1b replicon; [4]): 4.93 nM
- IC50 [1, 5]: 0.02 nM

SMILES: COc1ccc2nc(C)c3c(c2c1)CC[C@]1(C[C@H]2C(=O)N[C@]4(C(=O)NS(=O)(=O)C5(C)CC5)C[C@H]4/C=C\CCCCC[C@H](NC(=O)OC(C(C)(C)C)C(F)(F)F)C(=O)N2C1)O3 (stereo partly drawn) [Example 366, 1,1,1-trifluoro-3,3-dimethylbutan-2-yl [(2R,6S,12Z,13aS,14aR,16aS)-9′-methoxy-5′-methyl-14a-{[(1-methylcyclopropyl)sulfonyl]carbamoyl}-5,16-dioxo-1,1′,2′,5,6,7,8,9,10,11,13a,14,14a,15,16,16a-hexadecahydrospiro[cyclopropa[e]pyrrolo[1,2-a][1,4]diazacyclopentadecine-2,3′-pyrano[2,3-c]quinolin]-6-yl]carbamate]
- EC50 (HCV genotype 1b replicon; [4]): 6.46 nM
- IC50 [1, 5]: 0.023 nM

SMILES: COc1ccc2nc(C)c3c(c2c1)CC[C@]1(C[C@H]2C(=O)N[C@]4(C(=O)NS(=O)(=O)C5(C)CC5)C[C@H]4/C=C\CCCCC[C@H](NC(=O)OC(C(C)(C)C)C(F)(F)F)C(=O)N2C1)O3 (stereo partly drawn) [Example 367, 1,1,1-trifluoro-3,3-dimethylbutan-2-yl [(2R,6S,12Z,13aS,14aR,16aS)-9′-methoxy-5′-methyl-14a-{[(1-methylcyclopropyl)sulfonyl]carbamoyl}-5,16-dioxo-1,1′,2′,5,6,7,8,9,10,11,13a,14,14a,15,16,16a-hexadecahydrospiro[cyclopropa[e]pyrrolo[1,2-a][1,4]diazacyclopentadecine-2,3′-pyrano[2,3-c]quinolin]-6-yl]carbamate]
- EC50 (HCV genotype 1b replicon; HCV replicon, genotype 1b): 3.61 nM
- IC50 [1, 5]: 0.03 nM

SMILES: CC(C)COC(=O)N[C@H]1CCCCC/C=C\[C@@H]2C[C@@]2(C(=O)NS(=O)(=O)C2(C)CC2)NC(=O)[C@@H]2C[C@]3(CCc4c(c(C(F)F)nc5ccc(Cl)cc45)O3)CN2C1=O [Example 368, 2-methylpropyl [(2R,6S,12Z,13aS,14aR,16aS)-9′-chloro-5′-(difluoromethyl)-14a-{[(1-methylcyclopropyl)sulfonyl]carbamoyl}-5,16-dioxo-1,1′,2′,5,6,7,8,9,10,11,13a,14,14a,15,16,16a-hexadecahydrospiro[cyclopropa[e]pyrrolo[1,2-a][1,4]diazacyclopentadecine-2,3′-pyrano[2,3-c]quinolin]-6-yl]carbamate]
- EC50 (HCV genotype 1b replicon; [4]): 9.68 nM
- IC50 [1, 5]: 0.017 nM
